Data reported in the NIST ThermoML archive (doi:10.1016/j.jct.2012.01.008).

Conditions: Liquid, Vibrating tube method

COc1ccccc1 [anisole]
mass density [kg/m3]
Conditions | 100 kPa | 10000 kPa | 15000 kPa | 20000 kPa | 25000 kPa | 30000 kPa | 35000 kPa | 40000 kPa | 45000 kPa | 50000 kPa
298.15 K | 989.2 | 995.6 | 998.5 | 1001.4 | 1004.1 | 1006.9 | 1009.7 | 1012.5 | 1015.2 | 1017.5
318.15 K | 969.9 | 977.3 | 980.4 | 983.6 | 986.9 | 989.8 | 992.9 | 995.7 | 998.6 | 1001.5
348.15 K | 941.3 | 949.8 | 953.5 | 957.3 | 961.1 | 964.5 | 967.9 | 971 | 974.5 | 977.8

CCC[N+]1(C)CCCCC1.O=S(=O)([N-]S(=O)(=O)C(F)(F)F)C(F)(F)F
mass density [kg/m3]
Conditions | 100 kPa | 10000 kPa | 15000 kPa | 20000 kPa | 25000 kPa | 30000 kPa | 35000 kPa | 40000 kPa | 45000 kPa | 50000 kPa
298.15 K | 1408.9 | 1415.4 | 1418.7 | 1421.9 | 1424.8 | 1427.7 | 1430.4 | 1433.2 | 1436.1 | 1438.8
318.15 K | 1392.1 | 1398.9 | 1402.4 | 1405.4 | 1408.6 | 1411.8 | 1414.7 | 1417.6 | 1420.5 | 1423.3
348.15 K | 1366.3 | 1373.5 | 1377.2 | 1380.8 | 1384.1 | 1387.6 | 1390.7 | 1393.8 | 1397 | 1399.9

CC(=O)c1ccccc1 [acetophenone]
mass density [kg/m3]
Conditions | 100 kPa | 10000 kPa | 15000 kPa | 20000 kPa | 25000 kPa | 30000 kPa | 35000 kPa | 40000 kPa | 45000 kPa | 50000 kPa
298.15 K | 1023.4 | 1029 | 1031.7 | 1034.3 | 1036.8 | 1039.3 | 1041.8 | 1044.4 | 1046.7 | 1049
318.15 K | 1005.9 | 1012.2 | 1015.2 | 1018.1 | 1020.9 | 1023.6 | 1026.4 | 1028.8 | 1031.5 | 1034
348.15 K | 979.6 | 987.1 | 990.5 | 993.6 | 996.9 | 1000.1 | 1003.1 | 1006.1 | 1009 | 1011.7
